Laboratory results as given in patent US5274080A, “Monospecific antibodies useful in evaluating inhibition of polymorphonuclear leukocyte elastase by N-substituted azetidinones” (Merck & Co., Inc., priority 1991, dated 1993).

Test system: antibody R674
Experiment: Radioimmune assay: displacement of tritium labeled reactivation product from antibody R674
Assay type: binding, rabbit
Details: up to 10 μM (the highest concentration tested)
Protocol: Non-antibody-bound radioactive isotope was removed from the reaction mixture by its absorption onto dextran-coated activated charcoal. […] The activated charcoal was then suspended to 3% (w/v) in PBS dextran and allowed to stand overnight, washed once again in PBS dextran and resuspended to 3% (w/v) in PBS dextran and stored at 4° C. Immediately before use in the assay, the dextran-coated activated charcoal was diluted 10-fold in DULBECCO's PBS and 1 ml was added to each assay tube. […] The supernatant fluid was decanted into 9 ml of AQUASOL-2 scintillation fluid and radioactivity counted in a beta-counter. Each assay contains charcoal free controls, to which 1 ml PBS was added, for determination of total counts (BO), and antibody free controls for determination of non-specific binding. Percent specific binding was determined by subtracting the value for non-specific binding from the value of total antiserum binding and then dividing by the total radioactivity added.
Sensitivity of the antisera R674 (2nd bleed) was determined in the above RIA. The antiserum was diluted in PET/GEL buffer (1:12,000 final dilution in the 200 μl assay volume) as described above so that it binds 20-30% of the total radioactivity added. The same diluted stock was then used for all assay tubes within the same assay. […] The assay was set up on a competition basis. […]

In the case of `NC(N)=O` [Urea], the effect on displacement is reported as “without effect”.
In the case of `N=C(N)NCCC[C@H](N)C(=O)O` [arginine], the effect on displacement is reported as “without effect”.
